In patent publication US20100205696A1, “NOVEL HERBICIDE RESISTANCE GENE” (UNIVERSITY OF TENNESSEE RESEARCH FOUNDATION, priority 2009, published 2010):

Tests used:
[1] = tested on: PtJBMT; assay: Radiochemical methyltransferase assay (detoxification activity) with PtJBMT; assay type: biochemical; settings: 1 mM substrate, 3 μM 14C-SAM, 25° C., 30 min; relative to the activity of PtJBMTm3 with jasmonic acid set as 1
Description: (§1) The detoxification activity of PtJBMTm3 was determined using radiochemical methyltransferase assays. The assays were performed with a 50 μL volume containing 50 mM Tris-HCl, pH 7.5, 1 mM of individual auxin mimic herbicides dissolved in water, and 3 μM ^14C—S-Adenosyl methionine (SAM) with a specific activity of 51.4 mCi/mmol (Perkin Elmer, Boston, Mass.). The assay was initiated by addition of SAM, maintained at 25° C. for 30 min, and stopped by addition of […] (150 μL). After phase separation by one min centrifugation at 14,000 g, the upper organic phase was counted using a liquid scintillation counter (Beckman Coulter, Fullerton, Calif.) as previously described (D'Auria et al., 2002). Radioactivity counts in the organic phase indicated the amount of synthesized methyl esters, which are the detoxificated products of individual auxin mimic herbicides. The relative assay activities of PtJBMT and PtJBMTm3 with auxin-based herbicides is illustrated in Table 2 (the activity of PtJBMTm3 with jasmonic acid was set as 1).

[2] = tested on: PtJBMTm3; assay: Radiochemical methyltransferase assay (detoxification activity) with PtJBMTm3; assay type: biochemical; settings: 1 mM substrate, 3 μM 14C-SAM, 25° C., 30 min; for Relative assay activity of PtJBMT M3: relative to the activity of PtJBMTm3 with jasmonic acid set as 1
Description: as §1

SMILES | Relative assay activity of PtJBMT [1] [%] | Relative assay activity of PtJBMT M3 [2] [%] | Relative assay activity of PtJBMT M3 (reference, set as 1) ([2]; reference value set as 1)
Cc1cc(Cl)ccc1OCCCC(=O)O [MCPB] | 0.1 | 11.0 | –
O=C(O)c1c(Cl)ccc2cc(Cl)cnc12 [quinclorac] | 11.2 | 91.3 | –
Cc1cc(Cl)ccc1OC(C)C(=O)O (centres unmarked) [mecoprop] | 12.8 | 87.5 | –
O=C(O)Cc1c[nH]c2cccc(Cl)c12 [4-Cl-IAA] | 1.1 | 33.6 | –
O=C(O)Cc1cccc2ccccc12 [NAA] | 7.8 | 91.8 | –
CC(C)(Oc1ccc(Cl)cc1)C(=O)O [PCIB] | 8.0 | 96.9 | –
O=C(O)COc1ccc(Cl)cc1Cl [2,4-D, 2,4-dichlorophenoxyacetic acid] | 1.7 | 57.5 | –
Nc1c(Cl)c(F)nc(OCC(=O)O)c1Cl [fluroxypyr] | 0.6 | 4.2 | –
O=C(O)Cc1ccccc1 [PAA] | 0.8 | 58.3 | –
CC(Oc1ccc(Cl)cc1Cl)C(=O)O (centres unmarked) [dichlorprop] | 7.3 | 73.0 | –
COc1c(Cl)ccc(Cl)c1C(=O)O [dicamba] | 2.3 | 73.9 | –
O=C(O)c1nc(Cl)ccc1Cl [clopyralid] | 17.1 | 94.1 | –
O=C(O)CCCc1c[nH]c2ccccc12 [IBA] | 0.8 | 30.3 | –
O=C(O)CCCOc1ccc(Cl)cc1Cl [2,4-DB] | 0.5 | 38.7 | –
CC/C=C\C[C@H]1C(=O)CC[C@@H]1CC(=O)O [Jasmonic acid] | 85.1 | – | 1
Cc1cc(Cl)ccc1OCC(=O)O [MCPA] | 3.5 | 70.0 | –
O=C(O)c1c(Cl)ccc(Cl)c1Cl [2,3,6 Trichloro-benzoic acid] | 15.0 | 75.4 | –
O=C(O)COc1cc(Cl)c(Cl)cc1Cl [2,4,5-T] | 0.4 | 25.5 | –
Nc1c(Cl)c(Cl)nc(C(=O)O)c1Cl [picloram] | 3.7 | 78.1 | –
